According to ChEMBL document CHEMBL5465560, “Selectivity Literature for EUbOPEN Chemogenomic Library” (2024):

Assays:
[1] = target: Serine/threonine-protein kinase N1 (Homo sapiens, UniProt Q16512); test: Selectivity interaction (KinomeScan (DiscoverX)) EUB0000092b PKN1; conditions: at 10 µM
[2] = target: Serine/threonine-protein kinase SIK1 (Homo sapiens) (UniProt P57059); test: Selectivity interaction (KinomeScan (DiscoverX)) EUB0000666a SIK1; conditions: at 10 µM
[3] = target: Serine/threonine-protein kinase 26 (Homo sapiens, UniProt Q9P289); test: Selectivity interaction (ActivX KiNativ screen (kinase selectivity in THP-1 cell lysates)) EUB0000639a STK26; format: subcellular; conditions: lysate, at 0.01 µM
[4] = target: Serine/threonine-protein kinase Chk2 (Homo sapiens) (UniProt O96017); test: Selectivity interaction (ActivX KiNativ screen (kinase selectivity in THP-1 cell lysates)) EUB0000639a CHEK2; format: subcellular; conditions: lysate, at 1 µM
[5] = target: Tyrosine-protein kinase Fer (Homo sapiens) (UniProt P16591); test: Selectivity interaction (ActivX KiNativ screen (kinase selectivity in THP-1 cell lysates)) EUB0000639a FER; format: subcellular; conditions: lysate
[6] = target: T1, Serine/threonine-protein kinase D1 (Homo sapiens) (UniProt Q15139); test: Selectivity interaction (KinomeScan (DiscoverX)) EUB0000695a PRKD1; conditions: at 100 nM
T1 sequence (whole entry): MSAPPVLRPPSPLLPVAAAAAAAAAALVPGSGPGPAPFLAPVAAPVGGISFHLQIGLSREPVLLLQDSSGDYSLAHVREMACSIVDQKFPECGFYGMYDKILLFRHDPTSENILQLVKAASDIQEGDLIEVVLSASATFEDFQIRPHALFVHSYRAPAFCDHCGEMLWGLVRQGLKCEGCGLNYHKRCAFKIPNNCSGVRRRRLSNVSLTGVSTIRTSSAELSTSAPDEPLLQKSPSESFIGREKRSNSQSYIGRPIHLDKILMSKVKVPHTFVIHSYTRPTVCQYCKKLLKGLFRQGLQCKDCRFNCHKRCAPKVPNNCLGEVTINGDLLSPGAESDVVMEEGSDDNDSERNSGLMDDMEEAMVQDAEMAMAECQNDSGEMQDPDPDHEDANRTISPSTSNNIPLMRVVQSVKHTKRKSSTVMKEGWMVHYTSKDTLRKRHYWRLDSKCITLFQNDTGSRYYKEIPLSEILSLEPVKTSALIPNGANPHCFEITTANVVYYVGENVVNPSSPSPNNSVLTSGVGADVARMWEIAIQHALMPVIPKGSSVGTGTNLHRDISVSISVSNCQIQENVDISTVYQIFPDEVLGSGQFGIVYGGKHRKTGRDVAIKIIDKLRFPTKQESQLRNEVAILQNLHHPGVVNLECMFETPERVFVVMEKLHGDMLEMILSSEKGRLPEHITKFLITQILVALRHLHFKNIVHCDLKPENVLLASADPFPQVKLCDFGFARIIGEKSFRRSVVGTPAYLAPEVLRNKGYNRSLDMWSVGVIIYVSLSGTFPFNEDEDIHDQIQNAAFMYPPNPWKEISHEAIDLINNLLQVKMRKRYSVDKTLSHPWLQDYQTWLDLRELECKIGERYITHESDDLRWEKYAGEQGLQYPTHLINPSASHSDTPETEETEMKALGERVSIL

[7] = target: T2, Tyrosine-protein kinase ZAP-70 (Homo sapiens) (UniProt P43403); test: Selectivity interaction (KinomeScan (DiscoverX)) EUB0000595a ZAP70; conditions: at 10 µM
T2 sequence (whole entry): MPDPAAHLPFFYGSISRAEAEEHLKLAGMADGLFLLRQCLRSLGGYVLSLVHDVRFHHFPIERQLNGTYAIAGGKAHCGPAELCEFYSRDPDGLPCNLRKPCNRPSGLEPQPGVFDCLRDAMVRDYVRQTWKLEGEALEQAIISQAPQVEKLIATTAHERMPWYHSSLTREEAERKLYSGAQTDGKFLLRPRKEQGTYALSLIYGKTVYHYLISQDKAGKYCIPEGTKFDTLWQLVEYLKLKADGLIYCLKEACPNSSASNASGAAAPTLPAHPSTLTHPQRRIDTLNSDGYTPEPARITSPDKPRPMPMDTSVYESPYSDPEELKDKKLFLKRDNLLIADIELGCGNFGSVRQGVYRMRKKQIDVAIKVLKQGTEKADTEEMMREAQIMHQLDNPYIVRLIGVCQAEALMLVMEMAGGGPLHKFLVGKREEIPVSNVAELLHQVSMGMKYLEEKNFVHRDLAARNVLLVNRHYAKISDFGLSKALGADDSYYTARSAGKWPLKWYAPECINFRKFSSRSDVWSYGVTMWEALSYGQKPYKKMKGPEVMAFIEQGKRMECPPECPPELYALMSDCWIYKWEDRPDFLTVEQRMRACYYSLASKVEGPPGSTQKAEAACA

[8] = target: Insulin receptor (Homo sapiens, UniProt P06213); test: Selectivity interaction (KinomeScan (DiscoverX)) EUB0000618a INSR; conditions: at 10 µM
[9] = target: Histone-lysine N-methyltransferase SETDB1 (Homo sapiens) (UniProt Q15047); conditions: at 1 µM
[10] = target: T3, Serine/threonine-protein kinase haspin (Homo sapiens) (UniProt Q8TF76); test: Selectivity interaction (KinomeScan (DiscoverX)) EUB0001619a GSG2; conditions: at 1 µM
T3 sequence (whole entry): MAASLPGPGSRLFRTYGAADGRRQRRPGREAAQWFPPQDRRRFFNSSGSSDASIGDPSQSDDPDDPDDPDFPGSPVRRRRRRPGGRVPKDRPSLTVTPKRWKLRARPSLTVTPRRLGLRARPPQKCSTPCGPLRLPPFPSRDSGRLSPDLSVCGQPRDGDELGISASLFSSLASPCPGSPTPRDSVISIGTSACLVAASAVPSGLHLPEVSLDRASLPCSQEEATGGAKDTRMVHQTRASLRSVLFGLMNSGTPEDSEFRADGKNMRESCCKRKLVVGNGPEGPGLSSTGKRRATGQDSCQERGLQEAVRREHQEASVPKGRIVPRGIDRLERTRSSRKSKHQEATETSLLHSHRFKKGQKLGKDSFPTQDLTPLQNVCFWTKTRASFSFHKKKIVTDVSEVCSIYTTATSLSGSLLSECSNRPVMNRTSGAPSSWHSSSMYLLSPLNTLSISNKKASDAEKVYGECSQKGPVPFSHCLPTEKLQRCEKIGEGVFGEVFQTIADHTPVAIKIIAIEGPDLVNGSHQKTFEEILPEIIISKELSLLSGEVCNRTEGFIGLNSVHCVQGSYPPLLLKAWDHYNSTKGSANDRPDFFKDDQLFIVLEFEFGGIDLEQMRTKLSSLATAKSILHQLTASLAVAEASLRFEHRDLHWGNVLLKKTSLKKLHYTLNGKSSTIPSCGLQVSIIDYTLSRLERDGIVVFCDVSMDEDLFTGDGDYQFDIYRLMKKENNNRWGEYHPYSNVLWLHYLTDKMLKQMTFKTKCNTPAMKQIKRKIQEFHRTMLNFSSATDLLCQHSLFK

Tyrosine-protein kinase Fer (Homo sapiens), sequence (P16591 whole entry, looked up): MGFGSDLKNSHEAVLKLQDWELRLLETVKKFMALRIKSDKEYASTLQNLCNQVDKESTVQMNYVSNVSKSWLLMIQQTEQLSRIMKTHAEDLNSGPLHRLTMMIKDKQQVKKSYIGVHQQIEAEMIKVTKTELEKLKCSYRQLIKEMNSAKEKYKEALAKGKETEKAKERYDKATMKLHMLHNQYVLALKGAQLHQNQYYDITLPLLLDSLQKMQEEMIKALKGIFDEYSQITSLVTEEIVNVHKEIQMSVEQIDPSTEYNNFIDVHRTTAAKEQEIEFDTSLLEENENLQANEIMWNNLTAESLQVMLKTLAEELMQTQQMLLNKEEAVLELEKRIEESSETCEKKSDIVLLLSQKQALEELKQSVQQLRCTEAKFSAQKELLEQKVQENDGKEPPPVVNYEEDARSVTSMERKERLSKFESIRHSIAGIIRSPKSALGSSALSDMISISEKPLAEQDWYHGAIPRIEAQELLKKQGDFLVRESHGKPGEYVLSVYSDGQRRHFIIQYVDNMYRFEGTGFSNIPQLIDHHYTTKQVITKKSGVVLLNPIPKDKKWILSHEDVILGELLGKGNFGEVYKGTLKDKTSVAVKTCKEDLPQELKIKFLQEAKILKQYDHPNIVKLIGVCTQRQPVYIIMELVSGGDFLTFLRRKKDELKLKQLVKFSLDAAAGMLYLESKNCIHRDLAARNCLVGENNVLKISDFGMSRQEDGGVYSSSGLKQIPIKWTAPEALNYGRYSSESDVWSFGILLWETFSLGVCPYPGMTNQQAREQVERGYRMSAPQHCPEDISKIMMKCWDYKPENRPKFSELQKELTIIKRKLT
Serine/threonine-protein kinase N1, sequence (Q16512 2-942 limits assumed): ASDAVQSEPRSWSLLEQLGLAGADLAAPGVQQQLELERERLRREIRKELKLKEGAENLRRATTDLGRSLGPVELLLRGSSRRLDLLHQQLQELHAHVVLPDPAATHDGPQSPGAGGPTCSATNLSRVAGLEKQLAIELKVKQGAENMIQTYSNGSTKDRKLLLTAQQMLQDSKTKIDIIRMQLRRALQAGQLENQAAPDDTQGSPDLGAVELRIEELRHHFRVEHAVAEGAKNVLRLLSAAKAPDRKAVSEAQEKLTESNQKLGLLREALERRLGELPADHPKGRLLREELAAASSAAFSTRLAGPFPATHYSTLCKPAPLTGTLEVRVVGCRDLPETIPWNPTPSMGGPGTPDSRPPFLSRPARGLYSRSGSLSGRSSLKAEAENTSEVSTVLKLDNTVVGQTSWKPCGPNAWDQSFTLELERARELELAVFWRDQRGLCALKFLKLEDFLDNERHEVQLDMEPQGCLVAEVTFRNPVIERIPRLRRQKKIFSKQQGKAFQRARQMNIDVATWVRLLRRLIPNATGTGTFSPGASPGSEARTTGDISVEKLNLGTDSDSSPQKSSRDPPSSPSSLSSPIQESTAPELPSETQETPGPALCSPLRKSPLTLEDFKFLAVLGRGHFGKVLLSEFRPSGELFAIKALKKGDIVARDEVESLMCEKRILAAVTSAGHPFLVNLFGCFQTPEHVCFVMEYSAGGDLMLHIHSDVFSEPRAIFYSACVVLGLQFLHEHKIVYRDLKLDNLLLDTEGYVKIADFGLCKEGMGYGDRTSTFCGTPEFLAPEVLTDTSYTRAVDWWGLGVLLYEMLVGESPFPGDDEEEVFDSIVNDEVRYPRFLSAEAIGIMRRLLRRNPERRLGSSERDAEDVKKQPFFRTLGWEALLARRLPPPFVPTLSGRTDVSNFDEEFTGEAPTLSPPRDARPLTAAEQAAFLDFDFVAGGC
Serine/threonine-protein kinase 26, sequence (Q9P289 2-416 limits assumed): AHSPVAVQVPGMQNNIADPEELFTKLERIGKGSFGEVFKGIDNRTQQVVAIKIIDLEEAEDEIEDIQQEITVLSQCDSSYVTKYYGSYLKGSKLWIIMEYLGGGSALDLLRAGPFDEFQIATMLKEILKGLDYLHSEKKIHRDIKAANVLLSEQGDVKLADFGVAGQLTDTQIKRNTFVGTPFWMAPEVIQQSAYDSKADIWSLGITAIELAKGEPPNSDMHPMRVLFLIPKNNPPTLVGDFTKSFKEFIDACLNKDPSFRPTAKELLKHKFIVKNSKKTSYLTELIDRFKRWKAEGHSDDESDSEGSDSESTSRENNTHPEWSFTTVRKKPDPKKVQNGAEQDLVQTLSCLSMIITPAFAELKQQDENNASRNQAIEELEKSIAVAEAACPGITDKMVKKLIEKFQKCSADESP
Serine/threonine-protein kinase Chk2 (Homo sapiens), sequence (O96017 whole entry): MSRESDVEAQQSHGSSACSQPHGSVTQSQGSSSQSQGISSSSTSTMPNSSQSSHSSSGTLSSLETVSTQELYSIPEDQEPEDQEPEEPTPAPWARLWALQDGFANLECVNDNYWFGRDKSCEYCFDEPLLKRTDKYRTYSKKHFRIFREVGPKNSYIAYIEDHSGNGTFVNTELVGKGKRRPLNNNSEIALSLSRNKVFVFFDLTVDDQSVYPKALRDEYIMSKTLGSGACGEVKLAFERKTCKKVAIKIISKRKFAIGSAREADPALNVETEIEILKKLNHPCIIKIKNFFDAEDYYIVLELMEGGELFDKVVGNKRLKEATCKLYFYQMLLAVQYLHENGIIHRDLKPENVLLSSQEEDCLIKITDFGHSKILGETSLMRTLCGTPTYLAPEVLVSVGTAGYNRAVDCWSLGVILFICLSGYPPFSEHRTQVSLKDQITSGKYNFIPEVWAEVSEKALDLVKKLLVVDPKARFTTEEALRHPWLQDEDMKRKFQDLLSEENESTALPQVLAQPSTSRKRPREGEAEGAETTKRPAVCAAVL
Serine/threonine-protein kinase SIK1 (Homo sapiens), sequence (P57059 whole entry): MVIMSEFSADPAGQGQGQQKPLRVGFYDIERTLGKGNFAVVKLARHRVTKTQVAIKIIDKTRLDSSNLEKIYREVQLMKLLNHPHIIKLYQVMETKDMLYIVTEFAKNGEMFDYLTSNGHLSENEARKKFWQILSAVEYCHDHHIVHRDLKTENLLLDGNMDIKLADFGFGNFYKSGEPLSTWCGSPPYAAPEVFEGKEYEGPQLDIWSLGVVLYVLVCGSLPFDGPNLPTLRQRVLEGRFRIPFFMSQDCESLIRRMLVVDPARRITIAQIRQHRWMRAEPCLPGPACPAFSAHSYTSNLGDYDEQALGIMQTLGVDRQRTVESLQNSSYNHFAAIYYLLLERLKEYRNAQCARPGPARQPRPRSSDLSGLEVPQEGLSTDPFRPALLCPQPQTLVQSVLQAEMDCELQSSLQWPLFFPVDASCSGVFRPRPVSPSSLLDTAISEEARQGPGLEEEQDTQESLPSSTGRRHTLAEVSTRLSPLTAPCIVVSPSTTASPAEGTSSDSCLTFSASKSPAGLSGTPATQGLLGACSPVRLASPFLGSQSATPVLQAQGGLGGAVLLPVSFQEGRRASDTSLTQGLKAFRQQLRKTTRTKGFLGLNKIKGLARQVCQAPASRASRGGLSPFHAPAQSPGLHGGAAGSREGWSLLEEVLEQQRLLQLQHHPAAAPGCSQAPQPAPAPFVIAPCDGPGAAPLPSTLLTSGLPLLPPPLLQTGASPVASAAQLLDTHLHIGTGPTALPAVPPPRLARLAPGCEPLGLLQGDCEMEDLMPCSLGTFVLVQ
Insulin receptor, sequence (P06213 28-758 limits assumed): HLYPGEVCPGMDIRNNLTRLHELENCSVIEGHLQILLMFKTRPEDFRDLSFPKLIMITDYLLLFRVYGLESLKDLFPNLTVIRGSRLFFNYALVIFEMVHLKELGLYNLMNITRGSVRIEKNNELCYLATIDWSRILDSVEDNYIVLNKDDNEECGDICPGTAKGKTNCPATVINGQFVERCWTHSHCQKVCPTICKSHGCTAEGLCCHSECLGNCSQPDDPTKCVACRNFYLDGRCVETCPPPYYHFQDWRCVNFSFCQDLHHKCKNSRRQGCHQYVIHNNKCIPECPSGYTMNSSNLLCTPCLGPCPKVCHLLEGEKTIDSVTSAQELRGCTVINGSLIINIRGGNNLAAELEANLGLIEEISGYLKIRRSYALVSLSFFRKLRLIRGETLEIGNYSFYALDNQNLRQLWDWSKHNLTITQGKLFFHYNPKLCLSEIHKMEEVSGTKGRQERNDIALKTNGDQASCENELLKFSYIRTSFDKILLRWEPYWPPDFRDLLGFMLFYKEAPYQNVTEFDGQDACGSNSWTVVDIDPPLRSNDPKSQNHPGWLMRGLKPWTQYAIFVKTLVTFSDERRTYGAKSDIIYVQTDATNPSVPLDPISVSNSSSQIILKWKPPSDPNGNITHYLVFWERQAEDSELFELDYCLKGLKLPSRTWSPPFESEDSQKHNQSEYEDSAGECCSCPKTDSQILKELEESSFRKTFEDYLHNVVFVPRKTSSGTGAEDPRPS
Insulin receptor, sequence (P06213 763-1382 limits assumed): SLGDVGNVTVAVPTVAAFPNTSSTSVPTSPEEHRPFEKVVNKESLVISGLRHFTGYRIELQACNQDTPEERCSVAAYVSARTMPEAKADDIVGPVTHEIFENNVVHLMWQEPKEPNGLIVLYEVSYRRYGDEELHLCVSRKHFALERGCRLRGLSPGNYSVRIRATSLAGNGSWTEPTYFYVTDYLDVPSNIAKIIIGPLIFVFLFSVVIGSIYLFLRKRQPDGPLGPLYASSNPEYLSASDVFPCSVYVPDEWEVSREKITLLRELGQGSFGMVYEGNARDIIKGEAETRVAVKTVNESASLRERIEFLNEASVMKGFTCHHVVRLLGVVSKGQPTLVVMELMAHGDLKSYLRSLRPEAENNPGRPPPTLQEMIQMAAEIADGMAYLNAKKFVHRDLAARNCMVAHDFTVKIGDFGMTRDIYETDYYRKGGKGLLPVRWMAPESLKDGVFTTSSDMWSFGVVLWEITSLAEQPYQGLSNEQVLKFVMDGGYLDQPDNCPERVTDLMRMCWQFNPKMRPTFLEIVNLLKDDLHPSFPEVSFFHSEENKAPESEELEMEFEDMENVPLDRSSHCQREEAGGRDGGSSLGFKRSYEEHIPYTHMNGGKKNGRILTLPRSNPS

CCC(=O)N1CCN(c2ccc(-n3c(=O)ccc4cnc5ccc(-c6cnc7ccccc7c6)cc5c43)cc2C(F)(F)F)CC1
% of control [1]: 92%

O=C(NOC[C@H](O)CO)c1ccc(F)c(F)c1Nc1ccc(I)cc1F
% of control [2]: 100%

CC[C@@H]1[C@H](F)C(=O)N[C@@H]1COc1nccc2cc(C(N)=O)c(OC)cc12 [ZIMLOVISERTIB]
% of inhibition [3]: 19.6% | % of inhibition [4]: 22.6% | % of inhibition ([5]; at 0.01 µM): -9.6% | % of inhibition ([5]; at 0.04 µM): 0.8% | % of inhibition ([5]; at 0.2 µM): -7.6% | % of inhibition ([5]; at 1 µM): 15.7% | % of inhibition ([5]; at 5 µM): 10.9%

Cc1cc(F)c(C(=O)Nc2cccc(-c3nncn3C(C)C)n2)cc1-n1cnc(C2CC2)c1
% of control [6]: 8.7%

COCC(=O)NC/C=C/c1ccc2ncnc(Nc3ccc(Oc4ccc(C)nc4)c(C)c3)c2c1 [CP-724714]
% of control [7]: 100%

O[C@H]1CC[C@H](Nc2ncc3nc(Nc4c(F)cc(F)cc4F)n([C@H]4CCOC4)c3n2)CC1
% of control [8]: 98%

CNCCN1CCC(c2cc(CN(C)C(=O)c3cccc(Oc4ccccc4)c3)ccn2)CC1
% activity [9]: > 90%

N#Cc1cccc(-c2c[nH]c3ncnc(N4CCOCC4)c23)c1
% of control [10]: 46%
